Data as given in patent US6790621B2 (Washington State University Research Foundation, priority 2001, dated 2004).

What was measured:
Collies [1] = conditions: Collies vs Beagles, one study; cited from earlier work
Collies [2] = experiment: Ivermectin sensitivity (signs of neurotoxicosis) in Collies by mdr1 genotype; assay type: in vivo, dogs; conditions: oral 120 μg/kg
Procedure: Blood samples (8 ml) were obtained by jugular venipuncture from each of 13 clinically healthy Collies (Wil-O-Lane Kennels, Allegan, Mich.). […] Each dog was identified by an ear tattoo and housed in a run measuring 4×8 feet with metal walls and a raised, coated, metal screen floor. Facilities exceeded the minimal requirement specified by USDA guidelines.
We took advantage of a well-defined population of ivermectin-sensitive and non-sensitive Collies (Paul et al., Amer. J. Vet. Res. 61:482-483, 2000: Fassler et al., J. Am. Vet. Med. Assoc. 199:457-460, 1991). […] Clinical signs of neurotoxicity that were evaluated include apparent depression, ataxia, mydriasis, salivation, or drooling (Paul et al., Amer. J. Vet. Res. 61:482-483, 2000). Semi-quantitative reverse transcriptase PCR analysis was conducted on RNA isolated from ivermectin-sensitive and non-sensitive Collies to determine if mdr1 expression is lower in sensitive Collies than in non-sensitive Collies. Amplification of a 229-bp product of the canine glyceraldehyde 3-phosphate dehydrogenase (GAPDH) gene was used as an internal standard to control for variability in reverse transcriptase and PCR reactions.

Collies [3] = conditions: cited from earlier work
Collies [4] = experiment: Loperamide neurotoxicity in Collies; assay type: in vivo, dogs; conditions: one Collie of the study, homozygous for the mutant allele, treated with an appropriate dose as a puppy
Source text: Determination of the genotype of Collies is important clinically for several reasons. […] The dog tested homozygous for the mutant allele.

Row | Molecule | fraction of the lethal dose of ivermectin for Beagles that was lethal for Collies (Collies [1]) | ivermectin sensitivity (neurotoxicity) (Collies [2]; Collies heterozygous (normal/mutant) or homozygous normal) | ivermectin sensitivity (neurotoxicity) (Collies [2]; Collies homozygous for the mdr1 deletion (mutant/mutant)) | concentration in brain tissue (Collies [3]; affected Collies) | neurotoxicity in Collies (Collies [3]; doses routinely used in other breeds) | neurologic toxicity (Collies [4])
1 | Ivermectin | 1/200 | not sensitive to ivermectin neurotoxicity | exhibit ivermectin sensitivity |  |  | 
2 | CN(C)C(=O)C(CCN1CCC(O)(c2ccc(Cl)cc2)CC1)(c1ccccc1)c1ccccc1 [loperamide, Loperamide] |  |  |  | high concentrations in brain tissue | cause neurotoxicity | severe (nearly fatal) neurologic toxicity
